Source: patent publication EP0942911B1, “BENZOPYRANOPYRROLE AND BENZOPYRANOPYRIDINE ALPHA-1 ADRENERGIC COMPOUNDS” (Abbott Laboratories, priority 1996, dated 1998)
Counter-ions that a name gives are not always drawn. Like-named read-outs stand apart in the source and are kept apart here.

Experiments:
Experiment in all cases: biochemical
[1] = biological target: T1, α-1A adrenoreceptor (rat submaxillary gland) (Rattus norvegicus, UniProt P43140); format: binding
T1 sequence (P43140 1-466): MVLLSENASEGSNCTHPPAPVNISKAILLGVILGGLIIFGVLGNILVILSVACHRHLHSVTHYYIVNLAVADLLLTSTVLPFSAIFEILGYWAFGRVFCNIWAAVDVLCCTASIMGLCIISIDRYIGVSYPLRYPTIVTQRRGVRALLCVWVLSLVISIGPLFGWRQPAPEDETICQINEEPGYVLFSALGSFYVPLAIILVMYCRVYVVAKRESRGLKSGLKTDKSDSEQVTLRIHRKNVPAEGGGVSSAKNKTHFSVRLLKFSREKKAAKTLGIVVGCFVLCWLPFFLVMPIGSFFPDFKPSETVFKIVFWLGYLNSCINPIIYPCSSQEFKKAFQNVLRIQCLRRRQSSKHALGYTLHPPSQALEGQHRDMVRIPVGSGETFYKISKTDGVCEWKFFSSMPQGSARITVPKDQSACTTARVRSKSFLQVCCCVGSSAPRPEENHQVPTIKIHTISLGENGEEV
Outline: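 Radioligand binding to α-1A sites in membrane homogenates of rat submaxillary gland, run after Greengrass and Bremner. Bound radioactivity counted by liquid scintillation.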

α-1a adrenoreceptor = biological target: T2, α-1a adrenoreceptor (Bos taurus, UniProt P18130); format: binding, bovine
T2 sequence (P18130 1-466): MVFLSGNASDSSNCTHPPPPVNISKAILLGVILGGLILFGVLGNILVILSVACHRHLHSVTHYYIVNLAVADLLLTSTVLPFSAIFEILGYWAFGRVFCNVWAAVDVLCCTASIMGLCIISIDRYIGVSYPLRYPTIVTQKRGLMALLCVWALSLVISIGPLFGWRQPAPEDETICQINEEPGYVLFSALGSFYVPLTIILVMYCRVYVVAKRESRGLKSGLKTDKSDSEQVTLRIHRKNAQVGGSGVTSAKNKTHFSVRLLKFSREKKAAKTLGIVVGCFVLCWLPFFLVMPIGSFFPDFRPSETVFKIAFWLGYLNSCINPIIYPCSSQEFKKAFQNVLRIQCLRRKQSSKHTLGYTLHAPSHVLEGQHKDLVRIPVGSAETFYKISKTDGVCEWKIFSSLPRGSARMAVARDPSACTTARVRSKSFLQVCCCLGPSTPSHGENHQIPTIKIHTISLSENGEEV
Outline: (§1)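 Cloned α-1a (bovine), α-1b (hamster) and α-1d (rat) adrenoreceptors were stably expressed in mouse LTK fibroblasts; membranes from roller-bottle cultures were used. Native α-1A sites came from rat submaxillary gland. Radioligand binding followed Greengrass and Bremner, with liquid scintillation read-out.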

α-1b adrenoreceptor = biological target: T3, α-1b adrenoreceptor (Mesocricetus auratus, UniProt P18841); format: binding, hamster
T3 sequence (P18841 1-515): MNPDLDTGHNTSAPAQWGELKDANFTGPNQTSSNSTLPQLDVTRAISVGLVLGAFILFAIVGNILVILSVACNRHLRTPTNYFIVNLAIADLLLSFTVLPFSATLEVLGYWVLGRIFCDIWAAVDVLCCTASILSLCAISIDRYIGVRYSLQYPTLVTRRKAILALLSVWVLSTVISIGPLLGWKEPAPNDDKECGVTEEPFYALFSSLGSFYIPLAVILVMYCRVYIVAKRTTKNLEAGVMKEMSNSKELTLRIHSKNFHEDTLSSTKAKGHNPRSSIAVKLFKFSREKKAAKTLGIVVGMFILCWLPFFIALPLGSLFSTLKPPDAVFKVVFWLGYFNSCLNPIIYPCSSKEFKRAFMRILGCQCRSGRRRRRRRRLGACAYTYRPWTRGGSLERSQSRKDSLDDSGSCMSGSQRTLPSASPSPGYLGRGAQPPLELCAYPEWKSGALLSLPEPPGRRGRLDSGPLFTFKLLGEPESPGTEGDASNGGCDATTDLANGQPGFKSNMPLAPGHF
Outline: as §1

[2] = [3H]-prazosin radioligand, rat submaxillary gland membranes, read-out: Radioligand Binding (Ki, nM) 1A (Rat)
[3] = [3H]-prazosin radioligand, cloned receptor in LTK cell membranes, read-out: Radioligand Binding (Ki, nM) 1a (Bovine)
[4] = [3H]-prazosin radioligand, cloned receptor in LTK cell membranes, read-out: Radioligand Binding (Ki, nM) 1b (Hamster)
[5] = read-out: Radioligand Binding (Ki, nM) 1A (Rat)
[6] = read-out: Radioligand Binding (Ki, nM) 1a (Bovine)
[7] = read-out: Radioligand Binding (Ki, nM) 1b (Hamster)

SMILES | Ki [1, 2] | Ki (α-1a adrenoreceptor; [3]) | Ki (α-1b adrenoreceptor; [4]) | also measured
COc1cccc2c1[C@@H]1CN(CCCCn3c(=O)[nH]c4c(sc5ncc(-c6ccccc6)nc54)c3=O)C[C@@H]1CO2 [Example 39, 3-[4-((3aR,9bR)-cis-9-Methoxy-1,2,3,3a,4,9b-hexahydro-[1]-benzopyrano[3,4-c]pyrrol-2-yl)butyl]-8-phenyl-pyrazino[2',3':4,5]thieno[3,2-d]pyrimidine-2,4(1H,3H)-dione hydrochloride] | 0.343 nM | 0.226 nM | 31.9 nM | –
O=c1[nH]c2c(sc3cccnc32)c(=O)n1CCCCN1C[C@@H]2COc3ccccc3[C@@H]2C1 (racemic) [Example 70, 3-[4-((±)-cis-1,2,3,3a,4,9b-hexahydro-[1]-benzopyrano[3,4-c]pyrrol-2-yl)butyl]-pyrido[2',3':4,5]thieno[3,2-d]pyrimidine-2,4(1H,3H)-dione dihydrochloride] | – | – | – | Ki [1, 5]: 0.17 nM; Ki (α-1a adrenoreceptor; [6]): 0.082 nM; Ki (α-1b adrenoreceptor; [7]): 0.724 nM
COc1cc2nc(N3CCN(C(=O)C4COc5ccccc5O4)CC3)nc(N)c2cc1OC (stereo not drawn) [Doxazosin, doxazosin, reference compound] | – | – | – | Ki [1]: 0.423 nM; Ki (α-1a adrenoreceptor): 0.912 nM; Ki (α-1b adrenoreceptor): 0.793 nM
COc1cccc2c1[C@@H]1CN(CCCCn3c(=O)[nH]c4c(sc5ncccc54)c3=O)C[C@@H]1CO2 [Example 34, 3-[4-((3aR,9bR)-cis-9-Methoxy-1,2,3,3a,4,9b-hexahydro-[1]-benzopyrano[3,4-c]pyrrol-2-yl)butyl]-pyrido[3',2':4,5]thieno[3,2-d]pyrimidine-2,4(1H,3H)-dione hydrochloride] | 0.474 nM | 0.079 nM | 3.37 nM | –
COc1ccc2c(n1)sc1c(=O)n(CCCCN3C[C@H]4COc5cccc(OC)c5[C@@H]4C3)c(=O)[nH]c12 [Example 46, 3-[4-((3aS,9bR)-trans-9-Methoxy-1,2,3,3a,4,9b-hexahydro-[1]-benzopyrano[3,4-c]pyrrol-2-yl)butyl]-7-methoxy-pyrido[3',2':4,5]thieno[3,2-d]pyrimidine-2,4(1H,3H)-dione hydrochloride] | 0.353 nM | 0.033 nM | 2.58 nM | –
COc1cccc2c1[C@@H]1CN(CCCCn3c(=O)[nH]c4c(sc5c(Cl)nccc54)c3=O)C[C@H]1CO2 [Example 54, 3-[4-((3aS,9bR)-trans-9-Methoxy-1,2,3,3a,4,9b-hexahydro-[1]-benzopyrano[3,4-c]pyrrol-2-yl)butyl]-6-chloro-pyrido[4',3':4,5]thieno[3,2-d]pyrimidine-2,4(1H,3H)-dione] | 0.077 nM | 0.187 nM | 1 nM | –
COc1cccc2c1[C@@H]1CN(CCCCn3c(=O)[nH]c4c(sc5ccnc(OC)c54)c3=O)C[C@H]1CO2 [Example 49, 3-[4-((3aS,9bR)-trans-9-Methoxy-1,2,3,3a,4,9b-hexahydro-[1]-benzopyrano[3,4-c]pyrrol-2-yl)butyl]-9-methoxy-pyrido[3',4':4,5]thieno[3,2-d]pyrimidine-2,4(1H,3H)-dione fumarate] | 0.037 nM | 0.007 nM | 0.129 nM | –
COc1cccc2c1[C@@H]1CN(CCCCn3c(=O)[nH]c4c(sc5nccc(OC)c54)c3=O)C[C@@H]1CO2 [Example 36, 3-[4-((3aR,9bR)-cis-9-Methoxy-1,2,3,3a,4,9b-hexahydro-[1]-benzopyrano[3,4-c]pyrrol-2-yl)butyl]-9-methoxy-pyrido[3',2':4,5]thieno[3,2-d]pyrimidine-2,4(1H,3H)-dione hydrochloride] | 0.539 nM | 0.124 nM | 2.85 nM | –
COc1cccc2c1[C@@H]1CN(CCCCn3c(=O)[nH]c4c(sc5ncccc54)c3=O)C[C@H]1CO2 [Example 44, 3-[4-((3aS,9bR)-trans-9-Methoxy-1,2,3,3a,4,9b-hexahydro-[1]-benzopyrano[3,4-c]pyrrol-2-yl)butyl]-pyrido[3',2':4,5]thieno[3,2-d]pyrimidine-2,4(1H,3H)-dione hydrochloride] | 0.043 nM | 0.043 nM | 0.622 nM | –
COc1cccc2c1[C@@H]1CCN(CCCCn3c(=O)[nH]c4c(sc5ncc(Cl)nc54)c3=O)C[C@H]1CO2 [Example 97, 3-[4-((4aS,10bR)-trans-10-Methoxy-1,3,4,4a,5,10b-hexahydro-2H-[1]-benzopyrano[3,4-c]pyrido-3-yl)butyl]-8-chloro-pyrazino[2',3':4,5]thieno[3,2-d]pyrimidine-2,4(1H,3H)-dione dihydrochloride] | 0.892 nM | 0.097 nM | 4.7 nM | –
COc1cccc2c1[C@@H]1CN(CCCCn3c(=O)[nH]c4c(sc5nc(C)ccc54)c3=O)C[C@H]1CO2 [Example 45, 3-[4-((3aS,9bR)-trans-9-Methoxy-1,2,3,3a,4,9b-hexahydro-[1]-benzopyrano[3,4-c]pyrrol-2-yl)butyl]-7-methyl-pyrido[3',2':4,5]thieno[3,2-d]pyrimidine-2,4(1H,3H)-dione hydrochloride] | 0.125 nM | 0.066 nM | 1.34 nM | –
COc1cccc2c1OC[C@H]1CN(CCCn3c(=O)[nH]c4c(sc5ccccc54)c3=O)C[C@@H]21.Cl (racemic) [Example 68, 3-[3-((±)-cis-6-Methoxy-1,2,3,3a,4,9b-hexahydro-[1]-benzopyrano[3,4-c]pyrrol-2-yl)propyl]-[1]benzthieno[3,2-d]pyrimidine-2,4(1H,3H)-dione hydrochloride] | – | – | – | Ki [1, 5]: 40.6 nM; Ki (α-1a adrenoreceptor; [6]): 7.82 nM; Ki (α-1b adrenoreceptor; [7]): 23.6 nM
COc1cccc2c1[C@@H]1CN(CCn3c(=O)[nH]c4c(sc5ccccc54)c3=O)C[C@@H]1CO2.Cl (racemic) [Example 65, 3-[2-((±)-cis-9-Methoxy-1,2,3,3a,4,9b-hexahydro-[1]-benzopyrano[3,4-c]pyrrol-2-yl)ethyl]-[1]benzthieno[3,2-d]pyrimidine-2,4(1H,3H)-dione hydrochloride] | – | – | – | Ki [1, 5]: 15 nM; Ki (α-1a adrenoreceptor; [6]): 1.82 nM; Ki (α-1b adrenoreceptor; [7]): 20.7 nM
COc1cccc2c1[C@@H]1CN(CCCCn3c(=O)[nH]c4c(sc5nc(-c6ccccc6)cnc54)c3=O)C[C@@H]1CO2 [Example 40, 3-[4-((3aR,9bR)-cis-9-Methoxy-1,2,3,3a,4,9b-hexahydro-[1]-benzopyrano[3,4-c]pyrrol-2-yl)butyl]-7-phenyl-pyrazino[2',3':4,5]thieno[3,2-d]pyrimidine-2,4(1H,3H)-dione hydrochloride] | 22.8 nM | 3.02 nM | 33.8 nM | –
COc1cccc2c1[C@@H]1CN(CCCCn3c(=O)[nH]c4c(sc5nc(C)ccc54)c3=O)C[C@@H]1CO2 [Example 35, 3-[4-((3aR,9bR)-cis-9-Methoxy-1,2,3,3a,4,9b-hexahydro-[1]-benzopyrano[3,4-c]pyrrol-2-yl)butyl]-7-methyl-pyrido[3',2':4,5]thieno[3,2-d]pyrimidine-2,4(1H,3H)-dione hydrochloride] | 0.312 nM | 0.057 nM | 5.12 nM | –
COc1cccc2c1[C@@H]1CN(CCCCn3c(=O)[nH]c4c(sc5ccc(Cl)nc54)c3=O)C[C@H]1CO2 [Example 25, 3-[4-((3aS,9bR)-trans-9-Methoxy-1,2,3,3a,4,9b-hexahydro-[1]-benzopyrano[3,4-c]pyrrol-2-yl)butyl]-8-chloro-pyrido[2',3':4,5]thieno[3,2-d]pyrimidine-2,4(1H,3H)-dione dihydrochloride] | 0.061 nM | 0.03 nM | 0.591 nM | –
